Experimental data reported in patent US8865967B2 (priority 2010, dated 2014).

Experiments:
Format in all cases: cell-based
[1] = system: Colletotrichum graminicola (CGR; isolate Carroll-IA-99); conditions: for IC50 (ppm) High Salt Cgr: high salt: 1/2x liquid media plus 1 mM calcium chloride, 50 mM potassium chloride, Table 1; for IC50 (ppm) Low Salt Cgr: low salt: 1/8x Czapek-Dox broth plus 0.25 mM calcium chloride, 12.5 mM potassium chloride; for Antifungal activity (IC50 in ppm) against C. graminicola under high salt conditions: Table 2
[2] = system: Fusarium graminearum (FGR; isolate 73B ISU); conditions: for IC50 (ppm) High Salt Fgr: high salt: 1/2x liquid media plus 1 mM calcium chloride, 50 mM potassium chloride; for IC50 (ppm) Low Salt Fgr: low salt: 1/8x potato dextrose broth plus 0.25 mM calcium chloride, 12.5 mM potassium chloride
[3] = system: Fusarium verticillioides (FVE)
Diplodia maydis (DMA) = conditions: for IC50 (ppm) High Salt Dma: high salt: 1/2x liquid media plus 1 mM calcium chloride, 50 mM potassium chloride; for IC50 (ppm) Low Salt Dma: low salt: 1/8x potato dextrose broth plus 0.25 mM calcium chloride, 12.5 mM potassium chloride

Row | Substance | IC50 (ppm) High Salt Cgr [1] | IC50 (ppm) High Salt Fgr [2] | IC50 (ppm) High Salt Fve [3] | IC50 (ppm) High Salt Dma (Diplodia maydis (DMA)) | IC50 (ppm) Low Salt Cgr [1] | IC50 (ppm) Low Salt Fgr [2] | IC50 (ppm) Low Salt Fve [3] | IC50 (ppm) Low Salt Dma (Diplodia maydis (DMA)) | Antifungal activity (IC50 in ppm) against C. graminicola under high salt conditions [1]
1 | PP-PDF1-1F-7H6: Pp-PDF1 variant from first shuffling round (RVCEKPSKFFKGMCVRDRDCTVACKKEGLATGFCQKKGFFNFVCVCKKPC; Synthetic sequence obtained from DNA shuffling of a plant sequence.) | 10 ppm | 3 ppm | >200 ppm | 200 ppm | – | – | – | – | –
2 | PP-PDF1-1F-12H3: Pp-PDF1 variant from first shuffling round (RVCTKPSKFFKGLCVSDDDCAHACRKEGLATGKCQKKGFFNRVCVCKKPC; Synthetic sequence obtained from DNA shuffling of a plant sequence.) | 10 ppm | 3 ppm | >200 ppm | 200 ppm | – | – | – | – | –
3 | PP-PDF1-2CF-2D8: Pp-PDF1 variant from second shuffling round (RVCTKPSKFYKGLCVSDRDCTNACRKEGLPTGFCQSKGFFNSVCVCKKPC; Synthetic sequence obtained from DNA shuffling of a plant sequence.) | 0.6 ppm | 100 ppm | 200 ppm | 50 ppm | 0.3 ppm | 15 ppm | 30 ppm | 15 ppm | –
4 | PP-PDF1-2CF-10F3: Pp-PDF1 variant from second shuffling round (RVCTKPSKFFRGLCVSDRNCTNACRKEGLPTGECKSKGFFNSVCVCKKPC; Synthetic sequence obtained from DNA shuffling of a plant sequence.) | 0.6 ppm | 100 ppm | 200 ppm | 25 ppm | 1.5 ppm | 15 ppm | 30 ppm | 15 ppm | –
5 | Pp-PDF1 2CA 5H4: Pp-PDF1 variant from second shuffling round (RVCKKPSKFFKGLCLSDRDCTNACRKEGLATGECQSKGFFNSVCVCEKPC; Synthetic sequence obtained from DNA shuffling of a plant sequence.) | 1 ppm | – | – | – | – | – | – | – | –
6 | Pp-PDF1 (4B11): Pp-PDF1 variant identified by DNA shuffling (RVCTKPSKFFKGMCVSDNNCTHACRKEGLPTGFCQSKGFFNSVCVCKKPC; Synthetic sequence obtained from DNA shuffling of a plant sequence.) | 0.8 ppm | >200 ppm | >200 ppm | 12.5 ppm | – | – | – | – | 1 ppm
7 | Pp-PDF1 (C2B5): Pp-PDF1 variant identified by DNA shuffling (RVCEKPSKFFKGMCVSDRNCTNACRKEGLPTGFCQSKGFFNSVCVCKKPC; Synthetic sequence obtained from DNA shuffling of a plant sequence.) | – | – | – | – | – | – | – | – | 0.8 ppm
8 | Pp-PDF1-1C-6D3: Pp-PDF1 variant from first shuffling round (RVCEKPSKFFKGLCVRDRDCAVACKKEGLASGFCQSKGFFNSVCVCKKPC; Synthetic sequence obtained from DNA shuffling of a plant sequence.) | 12 ppm | – | – | – | 0.6 ppm | 4.5 ppm | – | – | –
9 | Pp-PDF1-1C-7C4: Pp-PDF1 variant from first shuffling round (RVCTKPSKFFKGMCVSDNDCTHACRKEGLATGFCQSKGFFNSVCVCTKPC; Synthetic sequence obtained from DNA shuffling of a plant sequence.) | 3 ppm | 20 ppm | >200 ppm | 25 ppm | 0.14 ppm | 4.7 ppm | – | – | 5 ppm
10 | Pp-PDF1-1F-1C5: Pp-PDF1 variant from first shuffling round (KVCTKPSKFFKGMCVRDRDCTNACRKEGLASGFCQKKGFFNFVCVCRKPC; Synthetic sequence obtained from DNA shuffling of a plant sequence.) | 10 ppm | 1.5 ppm | >200 ppm | 50 ppm | – | – | – | – | –
11 | Pp-PDF1-2CA-1A6: Pp-PDF1 variant from second shuffling round (RVCKKPSKFFKGLCLSDRDCTNACRKEGLATGECQSKGFFNSVCVCRKPC; Synthetic sequence obtained from DNA shuffling of a plant sequence.) | 1 ppm | – | – | – | – | – | – | – | –
12 | Pp-PDF1-2CA-1H4: Pp-PDF1 variant from second shuffling round (RVCRKPSKFFKGLCLSDRDCTNACRKEGLATGECQSKGFFNSVCVCEKPC; Synthetic sequence obtained from DNA shuffling of a plant sequence.) | 1 ppm | – | – | – | – | – | – | – | –
13 | Pp-PDF1-2CE-4A7: Pp-PDF1 variant from second shuffling round (RVCTKPSKFFKGLCVSDNNCTHACRTEGLPIGFCQSKGFFNSVCVCKKPC; Synthetic sequence obtained from DNA shuffling of a plant sequence.) | 0.8 ppm | 5.6 ppm | 200 ppm | 25 ppm | – | – | – | – | –
14 | Pp-PDF1-3CA-1 E6: Pp-PDF1 variant from third shuffling round (RVCTKPSKFYRGLCVSDRDCTNACRKEGLPTGFCQSKGFFNSVCVCKKPC; Synthetic sequence obtained from DNA shuffling of a plant sequence.) | 0.6 ppm | ^~100 ppm | – | – | – | – | – | – | –
15 | Pp-PDF1-3CA-1A2: Pp-PDF1 variant from third shuffling round (RVCTKPSKFYRGLCVSDRDCTHACRKEGLPTGFCQSKGFFNSVCVCKKPC; Synthetic sequence obtained from DNA shuffling of a plant sequence.) | 0.6 ppm | ^~100 ppm | 200 ppm | 50 ppm | 3 ppm | 15 ppm | 30 ppm | 15 ppm | –
16 | Pp-PDF1-3CA-1A7: Pp-PDF1 variant from third shuffling round (RVCTKPSKFFRGLCVSDRDCTNACRKEGLPIGFCQSKGFFNSVCVCKKPC; Synthetic sequence obtained from DNA shuffling of a plant sequence.) | 0.6 ppm | ^~100 ppm | 200 ppm | 25 ppm | 0.8 ppm | 15 ppm | 30 ppm | 10 ppm | –
17 | Pp-PDF1-3CA-1B2: Pp-PDF1 variant from third shuffling round (RVCTKPSKFYRGLCVSDRDCTHACRKEGLPIGECKSKGFFNSVCVCKKPC; Synthetic sequence obtained from DNA shuffling of a plant sequence.) | 0.8 ppm | ^~100 ppm | 200 ppm | 50 ppm | 2 ppm | 15 ppm | 30 ppm | 15 ppm | –
18 | Pp-PDF1-3CA-2D3: Pp-PDF1 variant from third shuffling round (RVCTKPSKFFRGLCVSDNDCTNACRKEGLPTGFCQSKGFFNSVCVCKKPC; Synthetic sequence obtained from DNA shuffling of a plant sequence.) | 0.8 ppm | ^~100 ppm | 200 ppm | 25 ppm | 0.3 ppm | 15 ppm | 30 ppm | 6 ppm | –
19 | Pp-PDF1-4CB-6E6: Pp-PDF1 variant from fourth shuffling round (RVCTKPSKFYKGLCISDRDCTNACRKEGLPIGFCKSKGFFNSVCVCRKPC; Synthetic sequence obtained from DNA shuffling of a plant sequence.) | 0.25 ppm | 150 ppm | >200 ppm | 100 ppm | 0.25 ppm | – | – | – | –
20 | Pp-PDF1-4CB-6E9: Pp-PDF1 variant from fourth shuffling round (RVCTKPSKFFKGLCISDRQCTNACRKEGLPTGECQPKGFFNSVCVCRKPC; Synthetic sequence obtained from DNA shuffling of a plant sequence.) | 0.25 ppm | 150 ppm | >200 ppm | 100 ppm | 0.4 ppm | – | – | – | –
21 | Pp-PDF1-4CB-12G9: Pp-PDF1 variant from fourth shuffling round (RVCTKPSKFFRGLCVSDRQCTNACRKEGLPIGECQSKGFFNSVCVCRKPC; Synthetic sequence obtained from DNA shuffling of a plant sequence.) | 0.25 ppm | 50 ppm | >200 ppm | 25 ppm | 0.25 ppm | – | – | – | –
